Measured values as given in US8222202B2 (priority 2006, dated 2012).
Read-outs that look alike come from different tables or passages of the source. Starred links: 1 amine or outer side, 2 acyl side, 3 side chain; linkers in the order of their positions; H or OH if unused. Positions of bridges follow the written chain, without caps; N, C: chain ends. Non-standard residues stand in square brackets, D forms with d. Residues, ends and D or L forms follow the SMILES beside them. Orn(Me) = CN(CCC[C@H](N[*:1])C(=O)[*:2])[*:3]; Ala(2-furyl) = N[C@@H](Cc1ccco1)C(=O)O; Orn(Pr) = CCCNCCC[C@H](N)C(=O)O; Orn = NCCC[C@H](N)C(=O)O; Dab = NCC[C@H](N)C(=O)O

Columns and labels:
[1] = target: T1, hV1a receptor (Homo sapiens, UniProt P37288); experiment: hV1a receptor transcriptional reporter (luciferase) agonist assay; format: cell-based
T1 construct: expressed in transfected cells; host or cells: HEK-293

[2] = tested on: anaesthetised Sprague-Dawley male rats; experiment: in vivo duration of action, blood pressure test in anaesthetised rats; design: species or system rat; conditions: ratio of decay rate of diastolic blood pressure response, AVP 0.1 nmol/kg i.v. to equieffective dose of compound; dibenamine-pretreated rats
Procedure: Blood pressure tests were carried out on anaesthetised Sprague-Dawley male rats (weighing 270-300 g) with catheterised jugular vein and carotid artery. The catheterised carotid artery was used to continuously monitor blood pressure and the jugular vein was used for administration of the compounds tested. Rats received intravenous injections of dibenamine prior to dosing to enhance their responsiveness to V1a receptor agonists (cf. Dekanski, J., Br. J. Pharmacol. 1952, 7, 567-572). […] Dosing intervals were set as time for the blood pressure to decrease to a stable baseline.
Determination of duration of action was based on the decay rate of diastolic arterial blood pressure transient increase. Specifically, for an exponential decay of plasma concentration, it can be shown that, if the response is measured beyond the distribution phase, the rate of decay near the EC50 is linear and inversely proportional to the elimination half-life (Rowland, M. and Tozer, T. in “Clinical Pharmacokinetics, Concepts and Applications”, 3rd ed., Lippincott Williams & Wilkins, Philadelphia, 1995).

[3] = target: T2, human oxytocin (hOT) receptor (Homo sapiens, UniProt P30559); experiment: luciferase-based transcriptional reporter assay, selectivity hOT versus hV1a; format: cell-based
T2 construct: expressed in transfected cells
T2 sequence (P30559 1-389): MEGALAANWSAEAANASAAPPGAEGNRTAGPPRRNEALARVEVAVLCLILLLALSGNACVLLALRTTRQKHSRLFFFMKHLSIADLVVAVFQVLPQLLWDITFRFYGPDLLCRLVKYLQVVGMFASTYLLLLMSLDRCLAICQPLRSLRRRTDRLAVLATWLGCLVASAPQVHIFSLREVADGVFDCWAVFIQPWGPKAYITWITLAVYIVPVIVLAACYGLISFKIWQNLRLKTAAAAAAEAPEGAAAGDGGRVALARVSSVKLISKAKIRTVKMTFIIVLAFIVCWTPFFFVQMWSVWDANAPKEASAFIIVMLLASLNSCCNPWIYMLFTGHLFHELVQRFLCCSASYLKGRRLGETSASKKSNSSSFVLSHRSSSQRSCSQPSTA

T1 sequence (P37288 whole entry): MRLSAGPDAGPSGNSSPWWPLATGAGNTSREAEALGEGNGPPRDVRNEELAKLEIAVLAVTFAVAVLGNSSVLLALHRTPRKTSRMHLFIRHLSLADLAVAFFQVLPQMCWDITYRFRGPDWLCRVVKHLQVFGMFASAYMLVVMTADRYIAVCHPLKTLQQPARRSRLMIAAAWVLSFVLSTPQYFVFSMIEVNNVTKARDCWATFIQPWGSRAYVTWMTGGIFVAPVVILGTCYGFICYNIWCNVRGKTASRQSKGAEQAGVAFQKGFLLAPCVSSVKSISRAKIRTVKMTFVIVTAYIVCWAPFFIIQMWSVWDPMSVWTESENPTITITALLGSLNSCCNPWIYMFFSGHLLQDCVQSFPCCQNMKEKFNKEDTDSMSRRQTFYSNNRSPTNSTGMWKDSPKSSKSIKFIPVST

Structure (SMILES) | EC50 [1] [nM] | in vivo duration relative to AVP [2] | selectivity hOT/hV1a [3] | selectivity hOT/hV1a ([3]; EC50 ratio) | selectivity hOT/hV1a ([3]; class symbol, agonist efficacy at hOT receptor compared to AVP) | EC50 ([1]; HEK-293 cells transiently transfected with hV1a receptor, 5 hours exposure, geometric mean, read-out: EC50 hV1a receptor) [nM]
CC[C@H](C)[C@@H]1NC(=O)[C@H](Cc2ccco2)NC(=O)[C@@H](N)CSSC[C@@H](C(=O)N2CCC[C@H]2C(=O)N[C@@H](CCCN)C(=O)NCC(N)=O)NC(=O)[C@H](CC(N)=O)NC(=O)[C@H](CCC(N)=O)NC1=O [Compound 25] (H-C[Ala(2-furyl)]IQNCP[Orn]G-NH2; disulfide 1-6) | 1.4 | 2.0 | 23 | – | – | –
CC[C@H](C)[C@@H]1NC(=O)[C@H](Cc2ccccc2)NC(=O)[C@@H](N)CSSC[C@@H](C(=O)N2CCC[C@H]2C(=O)N[C@@H](CCCNC)C(=O)NCC(N)=O)NC(=O)[C@H](CC(N)=O)NC(=O)[C@H](CCC(N)=O)NC1=O [Compound 39] (H-CFIQNCP[Orn(Me)]G-NH2; disulfide 1-6; N-terminus and C-terminus assumed) | 0.21 | 1.9 | – | 178 | – | –
NCCCC[C@H](NC(=O)[C@@H]1CCCN1C(=O)[C@@H]1CSSC[C@H](NC(=O)CNC(=O)CNC(=O)CN)C(=O)N[C@@H](Cc2ccc(O)cc2)C(=O)N[C@@H](Cc2ccccc2)C(=O)N[C@@H](CCC(N)=O)C(=O)N[C@@H](CC(N)=O)C(=O)N1)C(=O)NCC(N)=O [terlipressin, reference compound] (H-GGGCYFQNCPKG-NH2; disulfide 4-9) | 82.1 | 9.1 | – | – | + (selective hV1a receptor agonist; EC50 hOT/hV1a ratio not determined due to very low agonist efficacy (<30% compared to AVP) at the hOT receptor) | –
CCCNCCC[C@H](NC(=O)[C@@H]1CCCN1C(=O)[C@@H]1CSSC[C@H](N)C(=O)N[C@@H](Cc2ccccc2)C(=O)N[C@@H]([C@@H](C)CC)C(=O)N[C@@H](CCC(N)=O)C(=O)N[C@@H](CC(N)=O)C(=O)N1)C(=O)NCC(N)=O [Compound 40] (H-CFIQNCP[Orn(Pr)]G-NH2; disulfide 1-6; N-terminus and C-terminus assumed) | 0.27 | 2.0 | – | 88 | – | –
CC[C@H](C)[C@@H]1NC(=O)[C@H](Cc2ccco2)NC(=O)[C@@H](N)CSSC[C@@H](C(=O)N2CCC[C@H]2C(=O)N[C@@H](CCN)C(=O)NCC(N)=O)NC(=O)[C@H](CC(N)=O)NC(=O)[C@H](CCC(N)=O)NC1=O [Compound 26] (H-C[Ala(2-furyl)]IQNCP[Dab]G-NH2; disulfide 1-6; N-terminus and C-terminus assumed) | – | 2.0 | – | 28 | – | 2.24
